Source: patent US7326700B2, “Cyclohexenyl phenyl carboxamides tocolytic oxytocin receptor antagonists” (Wyeth, priority 2001, dated 2008)

Target: T1, human oxytocin receptor (Homo sapiens, UniProt P30559)
T1 construct: host or cells: CHO cells, stably transfected (pcDNA3.1 vector)
T1 sequence (P30559 1-389): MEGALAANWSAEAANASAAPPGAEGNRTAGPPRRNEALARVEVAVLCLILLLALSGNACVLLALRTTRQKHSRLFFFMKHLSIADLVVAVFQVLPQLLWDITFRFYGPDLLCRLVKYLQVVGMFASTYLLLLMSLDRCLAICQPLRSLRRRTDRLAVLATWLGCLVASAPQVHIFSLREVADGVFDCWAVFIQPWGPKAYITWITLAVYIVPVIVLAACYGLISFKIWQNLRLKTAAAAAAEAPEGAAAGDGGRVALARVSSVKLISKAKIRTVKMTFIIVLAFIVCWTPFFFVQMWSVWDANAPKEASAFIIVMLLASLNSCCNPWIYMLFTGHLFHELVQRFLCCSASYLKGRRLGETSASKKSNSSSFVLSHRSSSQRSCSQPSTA
Assay: Oxytocin binding in CHO cell membranes expressing human oxytocin receptors ([3H]oxytocin radioligand binding)
Details: 100 nM
Text: Chinese Hamster Ovary (CHO) cells stably transfected with the human oxytocin recptor (cf. Tanizawa et al., U.S. Pat. No. 5,466,584 (1995) to Rohto Pharmaceutical Co. Ltd., Osaka, Japan) were obtained from M. Thibonnier, Case Western Reserve University School of Medicine, Cleveland, Ohio.
CHO cells transfected with the human oxytocin receptors obtained from M. Thibonnier (pcDNA3.1 vector) are allowed to grow to confluency (approx. >90%) in T-150 flasks under sterile conditions, in a cell culture medium consisting of F-12 Nutrient Mixture (HAM) with L-glutamine (Gibco Cat. #11765-054) containing 15 mM HEPES (Gibco Cat. #15630-080), 1% antibiotic/antimycotic (add 5 mL 1 00×, Gibco Cat. #15240-062 per 500 mL F-12), 400 μg/mL of Geneticin (add 4 mL of 50 mg/mL per 500 mL F-12) and 10% Fetal Bovine Serum (Qualified, heat inactivated, Gibco Cat. #16140-063). The medium is removed by aspiration and the cells are washed with 10 mL of Hank's Balanced Salt solution (Gibco Cat. #14175-095). The salt solution is removed by aspiration and the cells trypsinized with 5 mL of trypsin-EDTA (0.05% trypsin, 0.53 mM EDTA-4Na, Gibco Cat. #25300-070) for 1 min The trypsin is removed by aspiration and the cells dislodged by tapping. Cell Culture medium (e.g. 30 mL for 1:30 split) is immediately added and mixed well to inactivate trypsin. 1 mL of detached cells is added to new culture flasks containing fresh Cell Culture medium (e.g. into 25 mL per T-150 flask), and mixed gently. The cells are incubated at 37° C. in 5% CO2. The medium is changed at 3 to 4 days interval (or as appropriate). The cells grow to confluency (approx. >75%-95%) within 7-8 days. All steps are done under sterile conditions.
The cells are washed twice gently with Hank's Balanced Salt solution (eg, use 10 mL per T-150 flask). The excess solution is removed and the cells bathed for 15-30 min. in an enzyme-free Cell Dissociation Buffer (eg, use 8 mL Hank's Based, Gibco Cat. #13150-016 per T-150 flask) until cells are loosened. The contents are transferred to centrifuge tubes (50 mL size) kept in ice bath. All subsequent steps are done at 4° C. The tubes are centrifuged at 300×g for 15 min (1380 rpm on SORVAL, Model RT6000D, using rotor for 50 mL tubes). The supernatant is discarded and the cells suspended in homogenizing buffer (10 mM Tris-HCl containing 0.25 M sucrose and 1 mM EDTA, pH 7.4) ensuring that the volume of the buffer is about ten times the volume of the cell pellet. The cells are pooled into a centrifuge tube (50 mL) and homogenized with a Polytron at setting 6 for 10 sec. The homogenate is transferred into a Potter-Elvjehm homogenizer and homogenized with 3 strokes. The homogenate is centrifuged at 1500×g for 10 min at 4° C. (3100 rpm using SORVAL, model RT6000D, using rotor for 50 mL tubes). The pellet is discarded. The supernatant is centrifuged at 100,000×g for 60 min. at 4° C. (Beckman L8-80M ultracentrifuge; spin at 37,500 rpm with rotor type 70 Ti for 50 mL tubes; 38,000 rpm with type 80 Ti for 15 mL tubes; or 35,800 rpm with rotor type 45Ti). The supernantant is discarded and the pellet suspended in 3 to 4 mL of Tris buffer (50 mM TRIS-HCl, pH 7.4). The protein content is estimated by the Bradford or Lowry method. The volume of the membrane suspension is adjusted with the membrane buffer (50 mM Tris-HCl containing 0.1% BSA and 0.1 mM PMSF) to give 3.0 mg/mL (or as appropriate) of protein. The membranes are aliquoted and stored at −70° C.
In wells of a 96-well format microtiter plate, is added 90, 110 or 130 μL (to make up a final volume of 200 μL) of assay buffer containing 50 mM of Tris-HCl (pH 7.4), […], 1 mg % aprotinin, 1 mg % leupeptin, 2 mg % 1,10-phenanthroline, 10 mg % trypsin inhibitor, and 0.1 mM PMSF. The inhibitors are added on the day of the experiment. The components are mixed at room temperature, and then kept in ice bath following adjustment of the pH to 7.4. […]

| Compound | OT % inhibition @ 100 nM |
| --- | --- |
| Cc1cc(C(=O)N2Cc3ccc(C(=O)NCCC4CCCN4C)n3Cc3ccccc32)ccc1C1=CCCCC1 (centres unmarked) [Example 21, 10-[4-(1-Cyclohex-1-en-1-yl)-3-methylbenzoyl]-N-[2-(1-methyl-2-pyrrolidinyl)ethyl]-10,11-dihydro-5H-pyrrolo[2,1-c][1,4]benzodiazepine-3-carboxamide] | 57% |
| Cc1cc(C(=O)N2Cc3ccc(C(=O)N4CCN(CCN(C)C)CC4)n3Cc3ccccc32)ccc1C1=CCCCC1 [Example 22, {10-[4-(1-Cyclohex-1-en-1-yl)-3-methylbenzoyl]-10,11-dihydro-5H-pyrrolo[2,1-c][1,4]benzodiazepin-3-yl}{4-[2-(dimethylamino)ethyl]-1-piperazinyl}methanone] | 92% |
| Cc1cc(C(=O)N2Cc3ccc(C(=O)N4CCN(CCN5CCOCC5)CC4)n3Cc3ccccc32)ccc1C1=CCCCC1 [Example 23, {10-[4-(1-Cyclohex-1-en-1-yl)-3-methylbenzoyl]-10,11-dihydro-5H-pyrrolo[2,1-c][1,4]benzodiazepin-3-yl}{4-[2-(4-morpholinyl)ethyl]-1-piperazinyl}methanone] | 79% |
| C=CCN1CCN(C(=O)c2ccc3n2Cc2ccccc2N(C(=O)c2ccc(C4=CCCCC4)c(C)c2)C3)CC1 [Example 24, (4-Allyl-1-piperazinyl){10-[4-(1-cyclohex-1-en-1-yl)-3-methylbenzoyl]-10,11-dihydro-5H-pyrrolo[2,1-c][1,4]benzodiazepin-3-yl}methanone] | 68% |
| Cc1cc(C(=O)N2Cc3ccc(C(=O)N4CCN(C(C)C)CC4)n3Cc3ccccc32)ccc1C1=CCCCC1 [Example 25, {10-[4-(1-Cyclohex-1-en-1-yl)-3-methylbenzoyl]-1 0,11-dihydro-5H-pyrrolo[2,1-c][1,4]benzodiazepin-3-yl}(4-isopropyl-1-piperazinyl)methanone] | 71% |
| Cc1cc(C(=O)N2Cc3ccc(C(=O)N4CCC[C@H]4CN4CCCC4)n3Cc3ccccc32)ccc1C1=CCCCC1 [Example 26, {10-[4-(1-Cyclohex-1-en-1-yl)-3-methylbenzoyl]-10,11-dihydro-5H-pyrrolo[2,1-c][1,4]benzodiazepin-3-yl}[(2S)-2-(1-pyrrolidinylmethyl)pyrrolidinyl]methanone] | 101% |
| Cc1cc(C(=O)N2Cc3ccc(C(=O)N4CC[C@@H](N(C)C)C4)n3Cc3ccccc32)ccc1C1=CCCCC1 [Example 27, {10-[4-(1-Cyclohex-1-en-1-yl)-3-methylbenzoyl]-10,11-dihydro-5H-pyrrolo[2,1-c][1,4]benzodiazepin-3-yl}[(3R)-3-(dimethylamino)pyrrolidinyl]methanone] | 100% |

Same assay, conditions: value in parentheses, read-out: OT (IC50)

| Compound | IC50 |
| --- | --- |
| {10-[4-(1-Cyclohexen-1-yl)-3-methylbenzoyl]-10,11-dihydro-5H-pyrrolo[2,1-c][1,4]benzodiazepin-3-yl}(4-methyl-piperazin-1-yl)methanone [Example 12] | 32.6 nM |
